Results: patent EP4800013A1, “PARG INHIBITOR” (Shanghai Qilu Pharmaceutical Research and Development …, priority 2023, dated 2025)
Read-outs that look alike come from different tables or passages of the source.

What was measured:
[1] = target: T1, PARG (Homo sapiens, UniProt Q86W56); assay: Enzymatic inhibitory activity against PARG, HTRF assay; type: biochemical; settings: HTRF; PARylated PARP1 protein as substrate; 60 minutes at room temperature; read-out: IC50 against PARG enzyme
T1 construct: made in house
Procedure, shortened: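 Purified PARG pre-incubated with compounds (top 10 µM, 3- to 5-fold dilutions, duplicates) 15 min at room temperature, then PARylated PARP1 substrate added for 60 min in Tris pH 7.4 buffer with DTT, EDTA/EGTA, KCl. HTRF (His-Tb/SA-XL665) read-out; IC50 by four-parameter logistic fit, normalised to DMSO and control-inhibitor wells.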

[2] = system: KURAMOCHI ovarian cancer xenograft model; assay: In vivo efficacy study in KURAMOCHI ovarian cancer xenograft model; settings: for TGI (%) / Tumor volume (mm^3): PO; for Tumor volume (mm^3): Mean ± SEM
Description: (§1) NOD SCID mice, female, SPF grade, purchased from Beijing Anikeepter Biotech Co., Ltd.
KURAMOCHI cells, purchased from JCRB.
(§2) The culture medium was changed weekly. […] Tumor cells in the logarithmic growth phase were used for in vivo implantation.
(§3) A total of 35 mice were inoculated: 35 mice for the efficacy study; 15 mice for the PK/PD study; 10 mice remaining after grouping. When the tumor volume reached approximately 150 to 200 mm^3, the mice were grouped for dosing to initiate the efficacy study. Specifically, they were divided into 7 groups, with 5 mice per group. The remaining animals were grouped for dosing when the tumor volume reached approximately 250 mm^3.
(§4) b. Treatment was initiated after grouping, with a dosing volume of 10 µL/g body weight via oral administration (PO). Animals were weighed daily before dosing and administered once daily for 21 consecutive days. Tumor diameters were measured twice weekly. c. Tumor volume (TV) was measured twice weekly to monitor changes in tumor size and growth rate. Tumor volume was calculated as: V = 1/2 × a × b^2, where a and b represent tumor length and tumor width, respectively. The growth inhibitory effect of compounds on tumor tissue was evaluated using tumor growth inhibition (TGI (%)). […] Data for both the treatment group and the negative control group were collected on the same day. d. The mice were weighed during tumor measurements. The relationship between changes in body weight and time of treatment was recorded. The survival and health status of the mice, including general conditions such as activity level and food intake during the dosing period, were also observed. […] Treatment was resumed when the body weight recovered to within 10% of baseline. […] Nutritional gel supplementation was provided during treatment discontinuation. e. At the study endpoint, the mice were euthanized.

[3] = system: KURAMOCHI ovarian cancer xenograft model; settings: mouse, in vivo, po
Description: as §1
KURAMOCHI cells, purchased from JCRB.
as §2, §3, §4

[4] = system: KURAMOCHI cells; assay: Inhibition of proliferation of KURAMOCHI cells (CellTiter-Glo, intracellular ATP); type: cell-based; settings: 168 h, incubated for 7 days, read-out: IC50 against KURAMOCHI cells
Procedure, shortened: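 KURAMOCHI cells seeded at 4000/well, incubated overnight, then treated with 9-point 1:4 compound series from 10 µM (0.5% DMSO) for 7 days at 37°C, 5% CO2. Viability read by CellTiter-Glo luminescence; inhibition normalised to medium-only (100%) and DMSO (0%) controls, IC50 from variable-slope four-parameter fit.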

[5] = Pharmacokinetic evaluation in BALB/c nude mice (PO); type: in vivo; settings: mouse, in vivo, 30 mg/kg
Description: Using mice as test animals, the compounds of the present disclosure were administered via intravenous bolus and oral injection. Plasma samples were collected at specific time points. Compound concentrations in plasma were determined by LC-MS/MS, and PK parameters were calculated to characterize the pharmacokinetic behavior of the compounds of the present disclosure in plasma.
BALB/c nude mice, female, supplied by Jiangsu GemPharmatech Co., Ltd.
Dosing regimen for BALB/c nude mice: The PO (oral) experimental group consisted of 3 mice, which were administered at a dose of 30 mg/kg and a volume of 10 mL/kg. The dosing vehicle was 5% (v/v) DMSO/10% (v/v) Solutol/85% (v/v) saline.
Following administration, 0.025 mL of blood was collected via venipuncture at the following time points: 0.0833 (IV), 0.25, 0.5, 1, 2, 4, 8, and 24 hours. Blood samples were collected into EDTA-K2 tubes and centrifuged at 4°C and 2000 g for 10 minutes to separate plasma, which was stored at -80°C.
Mouse plasma processing: • 1) 15 µL of plasma was mixed with 200 µL of acetonitrile for protein precipitation. The mixture was vortexed and centrifuged for 15 minutes. • 2) The supernatant after processing was diluted with water and analyzed by LC/MS/MS to determine the concentration of the test compound.
Pharmacokinetic parameters were calculated using WinNonlin 6.1. Specifically, Cmax represents maximum plasma concentration, CL represents clearance, Vss represents volume of distribution at steady state, T1/2 represents terminal elimination half-life, MRTInf represents mean residence time, AUC represents area under the plasma concentration-time curve, and F represents bioavailability. Table 18: Pharmacokinetic parameters of the compounds of the present disclosure in CD-1 mice

[6] = KURAMOCHI xenograft, oral administration

T1 sequence (Q86W56 whole entry): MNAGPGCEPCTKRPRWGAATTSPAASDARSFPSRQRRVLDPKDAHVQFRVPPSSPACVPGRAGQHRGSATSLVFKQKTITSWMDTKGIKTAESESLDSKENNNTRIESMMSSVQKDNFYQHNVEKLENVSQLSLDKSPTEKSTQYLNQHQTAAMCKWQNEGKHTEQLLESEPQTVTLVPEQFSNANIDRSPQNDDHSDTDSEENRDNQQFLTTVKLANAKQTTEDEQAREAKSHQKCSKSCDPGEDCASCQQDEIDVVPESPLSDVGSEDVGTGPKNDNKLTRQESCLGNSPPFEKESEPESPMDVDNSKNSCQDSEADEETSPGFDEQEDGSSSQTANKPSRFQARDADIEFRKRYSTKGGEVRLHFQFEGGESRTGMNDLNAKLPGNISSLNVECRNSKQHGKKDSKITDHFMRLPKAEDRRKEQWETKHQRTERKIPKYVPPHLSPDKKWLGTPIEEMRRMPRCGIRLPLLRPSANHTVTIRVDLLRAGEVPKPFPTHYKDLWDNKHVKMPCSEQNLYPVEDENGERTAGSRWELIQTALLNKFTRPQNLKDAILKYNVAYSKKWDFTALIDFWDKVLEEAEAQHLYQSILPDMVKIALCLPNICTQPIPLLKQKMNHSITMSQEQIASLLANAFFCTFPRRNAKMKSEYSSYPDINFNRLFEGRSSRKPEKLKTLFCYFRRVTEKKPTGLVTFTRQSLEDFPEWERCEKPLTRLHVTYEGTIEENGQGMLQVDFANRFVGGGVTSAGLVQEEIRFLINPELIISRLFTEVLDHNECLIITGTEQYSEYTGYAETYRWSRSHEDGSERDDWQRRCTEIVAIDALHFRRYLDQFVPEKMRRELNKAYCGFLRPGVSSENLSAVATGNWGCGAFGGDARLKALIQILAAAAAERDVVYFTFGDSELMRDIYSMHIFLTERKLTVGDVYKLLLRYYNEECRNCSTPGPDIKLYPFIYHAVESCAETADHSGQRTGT

| Compound | IC50 [1] [µM] | IC50 [4] [µM] | further results |
| --- | --- | --- | --- |
| C[C@H]1CN(c2cc(S(=O)(=O)NC3(C)CC3)cc3c2nc([C@@H]2CCCO2)n3-c2nnc(C(F)F)s2)C[C@H](C)N1 [Compound 077B2] | 0.0016 | 0.003 | tumor growth inhibition (in words) [2, 6]: significantly inhibited tumor growth; TGI (%) ([2]; 30 mg/kg, BID × 16 days): 127%; Tumor volume (mm^3) ([2]; 30 mg/kg, BID × 16 days): 61 ± 9 mm^3; TGI (%) ([2]; 100 mg/kg, QD × 16 days): 127%; Tumor volume (mm^3) ([2]; 100 mg/kg, QD × 16 days): 57 ± 10 mm^3; tolerability in mice (in words) [3]: good tolerability |
| C[C@H]1CN(c2cc(S(=O)(=O)NC3(C)CC3)cc3c2n2ncnc2n3-c2nnc(C(F)F)s2)C[C@H](C)N1 [Compound 065M] | 0.0014 | 0.003 | tolerability in mice (in words) [2, 6]: good tolerability; tumor growth inhibition (in words) [2, 6]: significantly inhibited tumor growth; TGI (%) ([2]; 30 mg/kg, QD × 16 days): 127%; Tumor volume (mm^3) ([2]; 30 mg/kg, QD × 16 days): 62 ± 6 mm^3 |
| C[C@H]1CN(c2cc(S(=O)(=O)NC3(C)CC3)cn3c(-c4nnc(C(F)F)s4)c([C@@H]4CCCO4)nc23)C[C@H](C)N1 [Compound 080B2] | 0.0004 | 0.0006 | AUC [5]: 8.35 µM·h; Cmax [5]: 1.87 µM; MRT inf [5]: 3.27 h; half-life [5]: 2.45 h |
| CCn1c(=O)n(-c2nnc(C(F)F)s2)c2cc(S(=O)(=O)NC3(C#N)CC3)cc(N3CCN(C(=O)N(C)C)CC3)c21 [Compound A043] | 0.008 | 0.011 | – |
| CC(C)C(=O)N1CCN(c2cc(S(=O)(=O)NC3(C#N)CC3)cc3c2n(C(C)C)c(=O)n3-c2nnc(C(F)F)s2)CC1 [Compound A050] | 0.0225 | 0.02 | – |
| C=CCn1c(=O)n(-c2nnc(C(F)F)s2)c2cc(S(=O)(=O)NC3(C#N)CC3)cc(N3CCN(C(=O)C4CC4)CC3)c21 [Compound 067S] | 0.0133 | 0.014 | – |
| CC(C)C(=O)N1CCN(c2cc(S(=O)(=O)NC3(C)CC3)cc3c2n(C(C)C)c(=O)n3-c2nnc(C(F)F)s2)CC1 [Compound A019] | 0.0181 | 0.016 | – |
| COCc1nc2n(-c3nnc(C(F)F)s3)c3cc(S(=O)(=O)NC4(C)CC4)cc(N4C[C@H](C)N[C@@H](C)C4)c3n2n1 [Compound 065U] | 0.0005 | 0.002 | – |
| C=CCn1c(=O)n(-c2nnc(C(F)F)s2)c2cc(S(=O)(=O)NC3(C#N)CC3)cc(N3CCN(C(=O)C(C)(C)C)CC3)c21 [Compound 067T] | 0.016 | 0.011 | – |
| C=CCn1c(=O)n(-c2nnc(C(F)F)s2)c2cc(S(=O)(=O)NC3(C#N)CC3)cc(N3CCN(C(=O)[C@@H]4CCCO4)CC3)c21 [Compound 076H1] | 0.0144 | 0.034 | – |
| C[C@H]1CN(c2cc(S(=O)(=O)NC3(C)CC3)cn3c(-c4nnc(C(F)F)s4)c(C4CCCO4)nc23)C[C@H](C)N1 (some centres unmarked) [Compound 080B] | 0.0005 | 0.001 | – |
| CC(C)C(=O)N1CCN(c2cc(S(=O)(=O)NC3(C#N)CC3)cc3c2ncn3-c2nnc(C(F)F)s2)CC1 [Compound B010] | 0.0314 | 0.059 | – |
| C[C@H]1CN(c2cc(S(=O)(=O)NC3(C)CC3)cc3c(-c4nnc(C(F)F)s4)c([C@H]4CCCO4)nn23)C[C@H](C)N1 [Compound 083A1] | 0.0146 | 0.025 | – |
| C[C@H]1CN(c2cc(S(=O)(=O)NC3(C)CC3)cc3c2n2nc(N4CCCC4=O)nc2n3-c2nnc(C(F)F)s2)C[C@H](C)N1 [Compound 084M] | 0.0008 | 0.009 | – |
| C=CCn1c(=O)n(-c2nnc(C(F)F)s2)c2cc(S(=O)(=O)NC3(C#N)CC3)cc(N3CCN(C(=O)[C@@H](C)CC)CC3)c21 [Compound 067W2] | 0.0131 | 0.011 | – |
